Where “and” joins values, the source holds several entries; their conditions need not be identical. Equal values may be shown once. Read-outs that look alike come from different tables or passages of the source.
Test system: N-methyl-D-aspartate (NMDA) receptor
Assay type: cell-based, mouse

With `NC(CCCP(=O)(O)O)C(=O)O` [D-APV, 2-amino-5-phosphonovalerate] the “LTP in the presence of the NMDA antagonist” value (50 μM D-APV, all genotypes, hippocampal slices, 100 Hz tetanus, 100 μM picrotoxin in bath) was “completely abolished”, the “Posttetanus fEPSP slopes, averaged over 180 min (relative to baseline)” value (n=3) was 107±14% and 97±9% and the “Posttetanus fEPSP slopes, averaged over 180 min (relative to baseline)” value (n=5) was 106±10%.
